These results are taken from patent US20250169496A1, “USE OF 2-AMINO-3-HYDROXY-3-METHYLBUTYRIC ACID AND/OR 2-AMINO-3-(4-HYDROXYPHENYL) BUTYRIC ACID” (NANJING TIANNONG BIOTECHNOLOGY CO., LTD., priority 2021, published 2025).

Assay [1] concerns tomato spotted wilt virus (TSWV). Description: Induced resistance of tobacco to infection of tomato spotted wilt virus. To be noted: for Viral protein content: tobacco leaves 3 d after inoculation, Western blot grayscale, relative. It counts as in vivo, Nicotiana benthamiana. Here is the method: Obtain the tomato spotted wilt virus from Yunnan Province, China, store the initial virus source in a −80° C. refrigerator, activate the virus by inoculating it by friction inoculation on Nicotiana benthamiana leaves, extract viral plasmids, transform them by Escherichia coli competent cells, spread them onto a resistant plate for culture, pick a single colony for PCR screening, select positive colonies for sequencing and subsequent plasmid extraction, add the plasmids with normal sequencing to agrobacterium competent cells, transform the agrobacterium by the electric shock method, spread the transformed agrobacterium solution on the corresponding resistance screening plate, and culture it at 28° C.(±1) for 48 h. Pick a single agrobacterium colony on the transformation plate, place it in 5 mL of LB medium with the corresponding resistance and culture it at 28° C. and 180 rpm overnight. Centrifuge at 6,000 rpm for 2 min, collect the bacteria, suspend the bacteria with a treatment buffer (10 mM MgCl2, 10 mM MES, 10 μM Acetosyringone) until the OD600 of the suspension is 0.5, treat it at 28° C. in a dark place for 3 h and keep it for future use.
Take 2-amino-3-hydroxy-3-methylbutyric acid, dissolve it with distilled water, then dilute the solution with distilled water by gradient into 0 nM, 0.1 nM, 1 nM and 10 nM solutions. Sow Nicotiana benthamiana seeds in a small pot, and culture them at 24(±1)° C., 12 h/12 h illumination for 5 weeks. Select healthy tobacco plants (plants with 8-10 leaves are appropriate), spray 2-amino-3-hydroxy-3-methylbutyric acid solutions at the above concentrations on leaves and stems twice at an interval of 24 h. After 24 hours, suck an agrobacterium solution at a uniform concentration with a 1 mL syringe, press the injection port of the syringe directly on a small hole on the back of a tobacco leaf, and slowly push the bacterial solution into the hole so that the whole leaf is soaked. Culture the soaked tobacco at 24(±1)° C. 12 h/12 h illumination. Observe under a microscope after 3 d and make record; meanwhile, take a sample, analyze the grayscale of protein bands by using Western blot and Image J software, and determine the relative protein content of virus in leaves. Observe the morbidity of the tobacco leaves after 15 days, record the disease index with reference to GB/T 23222-2008 Grade and Investigation Method of Tobacco Diseases and Insect Pests. The formula is as follows: […]
Grading standard of tomato spotted wilt viruses (grading survey with plant as a unit): • Level 0: No disease in the whole plant; • Level 1: The shoot and leaf veins are clear or the leaves are slightly mottled, and the diseased plant is not dwarfed obviously; • Level 3: One third of the leaves are mottled, but the leaves are not deformed, or the plant is dwarfed to more than three quarters of the normal plant height; • Level 5: One third to a half of the leaves are mottled, or a minority of leaves are deformed, or the main veins turn black, or the plant is dwarfed to two thirds to three quarters of the normal plant height; • Level 7: A half to two thirds of the leaves are mottled, or deformed or a minority of major lateral veins are dead, or the plant is dwarfed to a half to two thirds of the normal plant height; • Level 9: The leaves of the whole plant are mottled, or seriously deformed or dead, or the diseased plant is dwarfed to […] of the normal plant height.
In general terms: In western blotting, separated proteins are transferred to a membrane and probed.

Assay [2] relates to Pseudomonas syringae PstDC3000. Briefly: Induced resistance of Arabidopsis to infection of Pseudomonas syringae. The following applies: for Disease index: Arabidopsis 3 d after PstDC3000 inoculation; for CFU/mg (number of bacteria per mg of leaves): Arabidopsis leaves 3 d after PstDC3000 inoculation; for Decrease of disease index / Decrease of number of bacteria per mg of leaves: compared to blank control. It counts as in vivo. Here is the method: Take 2-amino-3-hydroxy-3-methylbutyric acid, dissolve it in sterile water, dilute the solution with sterile water by gradient into 100 nM, 1,000 nM and 10,000 nM solutions, set a blank control, and meanwhile add 0.02% Tween 20 as a surfactant. Spread Pseudomonas syringaePstDC3000 on an LB plate, and culture it at 28° C. for 48h; pick a monoclonal colony, inoculate it in a 50 mL centrifuge tube containing 2 mL of medium, culture it on a shaker at 28° C., 250 rpm, monitor changes of OD600 of the bacterial solution once every 1-2 h, and stop bacteria culturing before OD600 reaches 0.8; transfer 1 mL of the bacterial solution to a sterile 1.5 mL centrifuge tube, centrifuge it at 8000 rpm for 2 min, and collect the precipitate; remove the supernatant, wash the precipitate with 10 mM magnesium chloride for three times and centrifuge, lastly re-suspend PstDC3000 in the 10 mM magnesium chloride until its OD600 reaches 0.001, and keep it for future use. Soake Arabidopsis seeds in 75% alcohol for 3 min, then wash them with sterile water for 4 times, inoculate it in culture dishes filled with ½ MS medium, 12 seeds per dish, vernalize the ½ MS culture dishes containing seeds at 4° C. for 3 d to break dormancy, then put them in a 22° C. culture room with luminous intensity of 100μE m^−2s-^1(16 hillumination/8 h darkness), slowly pour the above 2-amino-3-hydroxy-3-methylbutyric acid at different concentrations into the culture dishes until the entire Arabidopsis seedlings are submerged after the seedlings have grown for 2 weeks, maintain this state for 2-3 minutes, and then pour the treatment solution out of the culture dishes, treat it once every 24 h, twice in total, inoculate PstDC3000 suspension (OD600=0.01) to Arabidopsis leaves by the same submerging method 24 h after the second treatment, seal the culture dishes with medical breathable adhesive after the inoculation, put them in the culture room for continued culturing. 3 d after, determine the number of bacteria after different treatments, observe the morbidity of Arabidopsis, and calculate the disease index by the method same as the disease index calculation formula in Embodiment 2.
Grading standard of diseases caused by PstDC3000(with leaf as a unit): • Level 0: No disease spot on the leaf surface; • Level 1: The area of the disease spots accounts for 0%-10% of the whole leaf area; • Level 2: The area of the disease spots accounts for 10%-25% of the whole leaf area; • Level 3: The area of the disease spots accounts for 25%-50% of the whole leaf area; • Level 4: The area of the disease spots accounts for 50%-75% of the whole leaf area; • Level 5: The area of the disease spots accounts for […] of the whole leaf area.

The mark [3] stands for this setting: 0.1 nM sprayed twice, tobacco 15 days after TSWV inoculation.
Where [4] appears, read: 1 nM sprayed twice, tobacco 15 days after TSWV inoculation.
Where [5] appears, read: concentration range 0.1-10 nM, tobacco, TSWV.

With `CC(c1ccc(O)cc1)C(N)C(=O)O` (stereo not drawn) [2-amino-3-(4-hydroxyphenyl) butyric acid], the Disease index is on record as 36.62 ± 0.87 b in assay [1] (setting [3]); 29.83 ± 2.31 c in assay [1] (setting [4]); “lower than 50” in assay [1] (setting [5]); 40.06 ± 0.98 b in assay [2] (100 nM); 36.81 ± 0.28 c in assay [2] (1,000 nM). The Viral protein content in assay [1] (0.1 nM) is recorded as 0.34 ± 0.004 b; in assay [1] (1 nM), 0.28 ± 0.012 c. Moreover, the Relative immune effect in assay [1] (0.1 nM, tobacco, TSWV) is 52.54%; in assay [1] (1 nM, tobacco, TSWV), 61.34%; in assay [1] (10 nM, tobacco, TSWV), 67.24%; in assay [1] (setting [5]), “more than 50%”. Further, the results for the “CFU/mg (number of bacteria per mg of leaves)” value in assay [2] (100 nM) and in assay [2] (1,000 nM) were 4.43 × 10^5 CFU/mg and 3.04 × 10^5 CFU/mg, respectively. For the same molecule, the “Decrease of disease index” value in assay [2] (100 nM) turned out to be 51.11%; in assay [2] (1,000 nM), 55.07%; in assay [2] (10,000 nM) it was 66.84%. Further, the results for the “Decrease of number of bacteria per mg of leaves” value in assay [2] (100 nM), in assay [2] (1,000 nM) and in assay [2] (10,000 nM) were 86.20%, 90.53% and 91.37%, respectively.
As for `CC(C)(O)C(N)C(=O)O` (stereo not drawn) [2-amino-3-hydroxy-3-methylbutyric acid], the Disease index in assay [1] (setting [3]) is reported as 58.64 ± 2.31 b; in assay [1] (setting [4]), 40.74 ± 3.02 c; in assay [1] (setting [5]), “lower than 60”; in assay [2] (100 nM) it was 40.90 ± 2.41 b; in assay [2] (1,000 nM), 38.90 ± 1.96 b. Besides, the Viral protein content in assay [1] (0.1 nM) is 0.41 ± 0.029 b; in assay [1] (1 nM), 0.30 ± 0.012 c. In addition, the Relative immune effect is given as 34.48% in assay [1] (0.1 nM, tobacco, TSWV); 54.48% in assay [1] (1 nM, tobacco, TSWV); 67.59% in assay [1] (10 nM, tobacco, TSWV); “more than 30%” in assay [1] (setting [5]). The results for the “CFU/mg (number of bacteria per mg of leaves)” value in assay [2] (100 nM), in assay [2] (1,000 nM) and in assay [2] (10,000 nM) were 9.46 × 10^5 CFU/mg, 7.11 × 10^5 CFU/mg and 3.81×10^5 CFU/mg, respectively. The results for the “Decrease of disease index” value in assay [2] (100 nM), in assay [2] (1,000 nM) and in assay [2] (10,000 nM) were 43.22%, 45.60% and 58.07%, respectively. The “Decrease of number of bacteria per mg of leaves” value in assay [2] (100 nM) was 70.34%; in assay [2] (1,000 nM), 77.71%; in assay [2] (10,000 nM) it was 88.06%.
